Results on one molecule are retold here after patent US20040241648A1, “Phosphoribosyl pyrophosphate synthetase 1as herbicidal target” (priority 2000, published 2004).

This test addresses T1, Arabidopsis thaliana 5-phosphoribosyl-1-pyrophosphate synthetase 1 (Arabidopsis thaliana, UniProt Q42581).
T1 construct: His-tag (from vector pFastBacHTb); made in house; host or cells: Sf21 insect cells (recombinant baculovirus, pFASTBAC HTb-AtPrs1)
T1 sequence (Q42581 50-403): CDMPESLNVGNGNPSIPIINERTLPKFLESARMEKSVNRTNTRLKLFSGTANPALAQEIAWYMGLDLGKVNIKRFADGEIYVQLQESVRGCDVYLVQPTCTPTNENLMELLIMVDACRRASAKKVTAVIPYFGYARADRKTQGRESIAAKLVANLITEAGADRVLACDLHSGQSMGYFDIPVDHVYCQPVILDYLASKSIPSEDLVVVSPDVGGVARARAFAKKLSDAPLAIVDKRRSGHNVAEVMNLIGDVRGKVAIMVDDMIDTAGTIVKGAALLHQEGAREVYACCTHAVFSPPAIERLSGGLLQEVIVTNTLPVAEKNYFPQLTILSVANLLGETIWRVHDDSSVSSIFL
The test can be described thus: 5-Phosphoribosyl-1-pyrophosphate synthetase 1 assay system (photometric, coupled enzyme, drop in NADH at 340 nm). To be noted: 0.5-5 mM inhibitor, recombinant enzyme from Sf21 insect cells, 18 μg total protein. Type of test: biochemical. The text has this: To obtain active Arabidopsis thaliana 5-phosphoribosyl-1-pyrophosphate synthetase 1 for high-throughput screening methods, the Arabidopsis thaliana Prs1 fragment is obtained from vector pGEM-T AtPrs1 (FIG. 2) using the restriction enzymes BamHI and EcoRI (cleavage sites inserted via primers RBPRPP3 and RBPRPP4) and cloned into the identically cleaved transfer vector pFastBacHTb (GibcoBRL). The resulting construct pFASTBAC HTb-AtPrs1 is used in accordance with the manufacturer's instructions (GibcoBRL) for generating recombinant Baculovirus. This virus is employed in accordance with the manufacturer's instructions (GibcoBRL) for infecting Sf21 insect cells in order to generate active 5-phosphoribosyl-1-pyrophosphate synthetase 1 enzyme. The specific enzymatic phosphoribosyl-pyrophosphate synthetase 1 activity is measured photometrically after the cells have been sonicated. The following components are employed per 90 μl batch: […]
After the cells had been sonicated in lysis buffer (50 mM NaH2PO4, 300 mM NaCl, pH 7.8), 18 μg of total protein are employed. […] What is measured is the drop in NADH at 340 nm.

As to `Nc1ncnc2c1ncn2[C@@H]1O[C@H](COP(=O)(O)OP(=O)(O)OP(=O)(O)O)C[C@H]1O` [cordycepin-5′-triphosphate], the “inhibition of the enzymatic activity of the plant 5-phosphoribosyl-1-pyrophosphate synthetase 1” value is reported as “inhibits the enzymatic activity”.
